# Where two headings read alike, the source gives them in different places.
# System: T1, voltage-gated Na+ (NaV) channels / INa in Neuro-2a cells (mainly NaV1.2, 1.3, 1.4 and 1.7)
# T1 construct: gene Scn2a
# Assay type: cell-based
# Settings: step -100 to -10 mV, 30 ms, Ca2+-free Tyrode with 10 mM TEA, 0.5 mM CdCl2, 20-25 °C
smiles,measurement,setting,value
"NC(=O)N1c2ccccc2C=Cc2ccccc21 [Carbamazepine, 5H-dibenzo[b,f]azepine-5-carboxamide]",IC50,late (sustained) INa(L),18 µM
same,IC50,peak (transient) INa(T),56 µM

# Reference: paper PMC9321339, “Characterization in Inhibitory Effectiveness of Carbamazepine in Voltage-Gated Na^+ and Erg-Mediated K^+ Currents in a Mouse Neural Crest-Derived (Neuro-2a) Cell Line” (International Journal of Molecular Sciences, 2022)
